{"source": "patent US9095541B2", "about": "“Brain tumor targeting peptides and methods” (Arch Cancer Therapeutics, Inc., priority 2009, dated 2015)", "key": {"[1]": {"system": "U87R xenografts", "experiment": "In vivo phage homing, U87R xenografts, anti-M13 immunohistochemistry", "set-up": "species or system SCID mice", "conditions": "H10 phage perfused in mice carrying U87R tumors; signal within tumor mass or peritumoral; method uses mannitol pretreatment", "description": "FIG. 6A illustrates the in vivo homing capability of H10. Invasive U87R or non-invasive U87T cells were grown in the right brain hemisphere of SCID mice. Once tumors were established, mice were anaesthetized and perfused with H10 phage for 10 minutes. Unbound phage was flushed from the system with PBS. Brains were cryosectioned and immunohistochemically stained for M13 phage or human nuclear antigen (hNA).\nThe ability of the selected phage or their corresponding peptides was examined for their ability to ‘home’ to their respective U87R or BTIC glioma cell targets in vivo, according to their ability to detect glioma cells in an orthotopic xenograft model. In the case of H10, SCID mice carrying U87R or U87T xenografts were injected with the test phage for ten minutes, which was subsequently perfused with PBS to remove any unbound particles.\n3×10^4 U87T cells, 3×10^5 U87R cells or 5×10^4 BTICs were injected in a 3 μL volume into one brain hemisphere of a SCID mouse and allowed to grow for 4, 6 or 12 weeks respectively. […]\nSerial sections were fixed with cold acetone, and rehydrated through an ethanol gradient. […] Avidin-biotin peroxidase complexes were then formed using the VECTASTAIN Elite ABC kit (Vector Laboratories) and detected by addition of […] […]"}, "[2]": {"experiment": "Water solubility of peptide", "type": "physicochemical", "conditions": "three N-terminal residues (KKG) added", "text": "In one aspect, the invention includes a peptide composition for targeting either (i) a highly invasive glioma cells (HIGC) subtype of human GBM cells, e.g., the U87R subtype of U87GM cells, or (ii) a brain tumor initiating cell (BTIC) subtype of human GBM cells, as characterized above. The peptide in the composition is 12-20 amino acid residues in length and contains one of the sequences identified as SEQ ID NOS-1-17, or a sequence that is at least 90% homologous with the given sequence. That is, the peptide has the same sequence as one of SEQ ID NOS: 1-17, or a sequence that differs from the given sequence by at most one amino acid residue. The peptide may contain only the given sequence of amino acids, or may contain additional N- and/or C-terminal residues up to a total of 20 residues. Thus, for example, the peptide corresponding to SEQ ID NO: 7, […] (H10), may have this exact sequence, the same sequence but with a single amino acid substitution, addition or deletion at any of the 12 residue positions, or a peptide having a total of up to eight additional residues at one or both of the N- or C-terminals."}, "[3]": {"system": "U87MG cells transfected with p75^NTR", "experiment": "Transwell migration assay, p75NTR-transfected U87MG", "type": "cell-based, human", "conditions": "in vitro invasion assay", "description": "The membranes of 8 μm pore sized transwell inserts (Corning Costar) were coated with brain-like matrix (720 μL of 3 mg/mL collagen I (PureCol); 180 μL of 10×DMEM (Invitrogen); 9 uL of 1 mg/mL human plasma fibronectin (Sigma); 9 uL of 1 mg/mL chondroitin sulfate proteoglycans (Chemicon); 16 μL of 0.15 mg/mL laminin (Chemicon)) on both sides, allowed to dry, then plated with 5×10^4 cells in 100 μL media in the upper chamber and 500 μL media in the lower chamber. Inclusion of collagen was essential to see the inhibitory effect of H10 (FIG. S4). 3×10^10 pfu of test phage were added to the upper chambers containing the cells, which were incubated for 4 hours under normal culture conditions. At the end of the incubation, the media was aspirated and the cells were fixed and stained in 1% crystal violet in 95% ethanol for one minute. Transwells were rinsed in PBS, then cells on the upper membrane surfaces were removed with a cotton swab. Cells which had migrated to the undersurface of the membranes were counted by light microscopy, and the sum of cells in five microscopic fields was recorded for each membrane."}, "[4]": {"system": "transferrin or its receptor (markers of clathrin-coated vesicles)", "experiment": "FITC-transferrin uptake and transferrin receptor gradient fractionation", "type": "cell-based, human", "conditions": "U87p75 and U87R cells, 2 hours", "description": "FIG. 9A are confocal images of p75^NTR transfected glioma cells (U87p75) imaged for uptake of FITC-transferrin.\nCells were lysed, fractioned using an iodixanol gradient, and Western Blot analysis for the transferrin receptor was performed;\n(§1) Cells were scraped into 1 mL of 0.25M sucrose, 140 mM NaCl, 1 mM EDTA, 20 mM Tris-HCl, pH 8.0, and dounce homogenized until cells were no longer visible by microscopy. Debris was pelleted for 5 min, 800×g and the supernatant was loaded on top of a 10 mL continuous 10-40% gradient, prepared by the dilution of OptiPrep (Sigma, 60% iodixanol) with 0.25M sucrose, 140 mM NaCl, 3 mM EDTA, 60 mM Tris-HCl, pH8.0. Gradients were spun in a swinging bucket rotor at 48000×g for 18 hrs and 0.5 mL fractions were collected. Total protein was precipitated from each fraction by the addition of 2 volumes of −20° C. 20 mM DTT, 15% TCA, storage at −20° C. overnight, followed by centrifugation at 4° C. for 20 minutes. Pellets were resuspended in 20 μL 1M Tris and 20 μL 2× Laemmli buffer. The entire volume was loaded into a single well for SDS-PAGE resolution and western transfer."}, "[5]": {"system": "p75^NTR in U87R cells", "experiment": "Sucrose/iodixanol density gradient fractionation with Western blot for p75NTR", "type": "cell-based, human", "conditions": "U87R cells on collagen, treated 2 hours, 10-40% sucrose/iodixanol gradient", "text": "White arrows indicate higher molecular weight p75^NTR-containing complexes. Lines underneath the figure indicate the fractions in which common organelles are generally found;\nThe p75^NTR can be detected differentially in lipid rafts isolated with specific detergents, and must be proteolytically processed to trigger cell migration in glioma cells. Thus, it is probable that p75^NTR is also cleaved within a lipid raft after endocytosis. To determine if H10 may be having an impact on endosomally located p75^NTR, cells were hypertonically lysed (to keep vesicles and organelles at least partially intact) and separated on a 10-40% sucrose/iodixanol gradient from which fractions were individually collected.\nas §1, with “20 mM DTT, 15% TCA, storage at −20° C. overnight, followed by centrifugation at 4° C. for 20 minutes. Pellets were resuspended in 20 μL 1M Tris and 20 μL 2× Laemmli buffer. The entire volume was loaded into a single well for SDS-PAGE resolution and western transfer.” left out"}, "[6]": {"system": "lipid raft marker GM1 in U87R cells", "type": "cell-based, human", "conditions": "cholesterol oxidase, Alexa 555-cholera toxin B subunit, 120 minutes"}}, "note": "Peptide text beside a SMILES is read from it.", "data": [{"molecule": "CC[C@H](C)[C@H](NC(=O)[C@H](CO)NC(=O)[C@H](CC(N)=O)NC(=O)[C@@H](N)[C@@H](C)O)C(=O)N[C@@H](Cc1c[nH]c2ccccc12)C(=O)N[C@@H](Cc1ccc(O)cc1)C(=O)N[C@H](C(=O)N[C@@H](C)C(=O)N1CCC[C@H]1C(=O)N[C@@H](Cc1ccc(O)cc1)C(=O)N[C@@H](CCSC)C(=O)N[C@@H](Cc1ccccc1)C(=O)O)[C@@H](C)O", "note": "[H10] (H-TNSIWYTAPYMF-OH; N-terminus and C-terminus assumed)", "values": [{"measurement": "crossing of the blood brain barrier (BBB)", "setting": "[1]", "result": "has the ability to cross the blood brain barrier"}]}, {"molecule": "CC[C@H](C)[C@H](NC(=O)[C@H](CO)NC(=O)[C@H](CC(N)=O)NC(=O)[C@@H](NC(=O)CNC(=O)[C@H](CCCCN)NC(=O)[C@@H](N)CCCCN)[C@@H](C)O)C(=O)N[C@@H](Cc1c[nH]c2ccccc12)C(=O)N[C@@H](Cc1ccc(O)cc1)C(=O)N[C@H](C(=O)N[C@@H](C)C(=O)N1CCC[C@H]1C(=O)N[C@@H](Cc1ccc(O)cc1)C(=O)N[C@@H](CCSC)C(=O)N[C@@H](Cc1ccccc1)C(=O)O)[C@@H](C)O", "note": "[modified H10] (H-KKGTNSIWYTAPYMF-OH; N-terminus and C-terminus assumed)", "values": [{"measurement": "water solubility relative to H10 peptide", "setting": "[2]", "result": "substantially more water soluble"}]}, {"molecule": "cholesterol oxidase", "values": [{"measurement": "cell migration of U87p75 glioma cells", "setting": "[3]", "result": "significantly inhibited cell migration"}, {"measurement": "intracellular localization or gradient fractionation of transferrin or its receptor", "setting": "[4]", "result": "no effect"}, {"measurement": "distribution of p75^NTR forms in density gradient fractions", "setting": "[5]", "result": "shift of higher molecular weight forms of p75^NTR into the denser gradient fractions"}, {"measurement": "GM1 localisation", "setting": "[6]", "result": "accumulate within the cells, particularly at the plasma membrane"}]}]}
